Experimental findings from BindingDB's records for doi:10.1021/bi00098a028 (Arizona State University, 1991) are described below.

As usually defined, the Ki is a dissociation constant, usually derived from enzyme kinetics or from competition with a known ligand.

This test deals with T1, Purine nucleoside phosphorylase (Homo sapiens, UniProt P00491).
T1 sequence (P00491 whole entry): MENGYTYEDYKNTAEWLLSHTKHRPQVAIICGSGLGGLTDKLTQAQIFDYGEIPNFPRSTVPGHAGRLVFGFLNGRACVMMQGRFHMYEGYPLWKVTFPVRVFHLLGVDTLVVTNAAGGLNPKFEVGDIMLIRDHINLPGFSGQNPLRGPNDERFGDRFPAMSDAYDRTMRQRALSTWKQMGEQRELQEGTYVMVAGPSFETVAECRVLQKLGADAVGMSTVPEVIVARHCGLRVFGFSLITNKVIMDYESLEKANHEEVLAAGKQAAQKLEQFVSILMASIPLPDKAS
The test can be described thus: Competitive Inhibition Assay. The text has this:
PNPase activity (guanosine to guanine and ribose 1-phosphate) was followed by measuring the decrease in absorbance at 268nm.

`Cc1cc(O)c2nc[nH]c(=O)c2c1` [Substituted Quinazolin-4(3H)-one, 12] registered an inhibition constant (Ki) of 618 µM.

As for `Nc1ccc(O)c2c(=O)[nH]cnc12` [Substituted Quinazolin-4(3H)-one, 15], the affinity, expressed as Ki, was 131 µM.

As for `O=c1[nH]cnc2c(O)cccc12` [Substituted Quinazolin-4(3H)-one, 14], the affinity corresponds to a Ki of 593 µM.

Take `O=c1[nH]cnc2c(O)ccc(O)c12` [Substituted Quinazolin-4(3H)-one, 11]: the inhibition constant (Ki) came to 142 µM.

In the case of `Nc1cccc2nc[nH]c(=O)c12` [Substituted Quinazolin-4(3H)-one, 9], the inhibition constant (Ki) worked out at 337 µM.

On to `O=c1[nH]cnc2cccc(O)c12` [Substituted Quinazolin-4(3H)-one, 13], for which the Ki is 576 µM.
